{"source": "paper PMC11721617", "about": "“Novel isobavachalcone derivatives induce apoptosis and necroptosis in human non-small cell lung cancer H1975 cells” (Journal of Enzyme Inhibition and Medicinal Chemistry, 2023)", "key": {"H1975": {"tested_on": "H1975", "experiment": "MTT assay, cytotoxic activity / cell viability", "assay_type": "cell-based, human", "conditions": "Homo sapiens, NCI-H1975", "procedure": "(§1) Four cell lines (H1975, A549, PC9, and Aml-12) were cultured in RPMI 1640 medium containing 10% foetal bovine serum (FBS) and 1% penicillin/streptomycin in an atmosphere with 5% CO2 and 95% relative humidity at 37 °C.\n(§2) Cell viability was examined using the MTT assay. The cells grown in the logarithmic phase were seeded in 96-well plates at a density of 5 × 10^3 per well. The cells were treated with various concentrations (0, 5, 10, 20, 40, and 80 μM) of the compound at different times, respectively. At the end of time point, MTT solution (5 mg/ml) was added to each well and incubated at 37 °C for 4 h. Next, the media was removed, and formazan was dissolved in DMSO. Finally, absorbance was measured with a microplate spectrophotometer at 490 nm (Synergy HT, BioTek, VT, USA)."}, "PC9": {"tested_on": "PC9", "experiment": "MTT assay, cytotoxic activity", "assay_type": "cell-based", "conditions": "Homo sapiens, PC-9, PC9 cells, 72 h", "procedure": "as §1, §2"}, "A549": {"tested_on": "A549", "experiment": "MTT assay, cytotoxic activity", "assay_type": "cell-based, human", "conditions": "Homo sapiens; A549 cells, 72 h, MTT", "procedure": "as §1, §2"}, "[1]": {"experiment": "MTT assay, cytotoxic activity on normal hepatocytes", "assay_type": "cell-based, mouse", "conditions": "Aml-12 cells (normal hepatocytes); normal mouse hepatocytes Aml-12 cells, 72 h", "procedure": "as §1, §2"}, "[2]": {"conditions": "H1975 cells, 72 h, MTT, read-out: Cytotoxic activity IC50, H1975"}}, "note": "Where two headings read alike, the source gives them in different places."}
{"compound": "CC(C)=CCc1c(O)c(C(=O)/C=C/c2ccc(O)cc2)cc(C(c2ccc(C(=O)O)cc2)N2CCOCC2)c1O", "note": "(stereo not drawn) [Compound 14, (E)-4-((2,4-Dihydroxy-5-(3-(4-hydroxyphenyl)acryloyl)-3-(3-methylbut-2-en-1-yl)phenyl)(morpholino)methyl)benzoic acid]", "values": [{"measurement": "IC50", "setting": "H1975; [2]", "result": 23.6, "unit": "µM"}, {"measurement": "IC50", "setting": "PC9", "result": "> 50", "unit": "µM"}, {"measurement": "IC50", "setting": "A549", "result": "> 50", "unit": "µM"}]}
{"compound": "COc1ccc(C(=O)/C=C/c2ccc(O)cc2)c(O)c1CC=C(C)C", "note": "[Compound 2, (E)-1-(2-Hydroxy-4-methoxy-3-(3-methylbut-2-en-1-yl)phenyl)-3-(4-hydroxyphenyl) prop-2-en-1-one]", "values": [{"measurement": "IC50", "setting": "H1975; [2]", "result": 40.5, "unit": "µM"}, {"measurement": "IC50", "setting": "PC9", "result": 35.3, "unit": "µM"}, {"measurement": "IC50", "setting": "A549", "result": "> 50", "unit": "µM"}]}
{"compound": "CC(C)=CCc1c(O)c(C(=O)/C=C/c2ccc(O)cc2)cc(C(c2ccc(C(F)(F)F)cc2)N2CCOCC2)c1O", "note": "(stereo not drawn) [Compound 17, (E)-1-(2,4-Dihydroxy-3-(3-methylbut-2-en-1-yl)-5-(morpholino(4-(trifluoromethyl)phenyl)methyl)phenyl)-3-(4-hydroxyphenyl)prop-2-en-1-one]", "values": [{"measurement": "IC50", "setting": "H1975; [2]", "result": 7.01, "unit": "µM"}, {"measurement": "IC50", "setting": "PC9", "result": 20.6, "unit": "µM"}, {"measurement": "IC50", "setting": "A549", "result": 30.1, "unit": "µM"}]}
{"compound": "COc1ccc(/C=C/C(=O)c2ccc(OC)c(CC=C(C)C)c2O)cc1", "note": "[Compound 3, (E)-1-(2-Hydroxy-4-methoxy-3-(3-methylbut-2-en-1-yl)phenyl)-3-(4-methoxyphenyl) prop-2-en-1-one]", "values": [{"measurement": "IC50", "setting": "H1975; [2]", "result": "> 50", "unit": "µM"}, {"measurement": "IC50", "setting": "PC9", "result": "> 50", "unit": "µM"}, {"measurement": "IC50", "setting": "A549", "result": "> 50", "unit": "µM"}]}
{"compound": "COc1ccc(C(c2cc(C(=O)/C=C/c3ccc(O)cc3)c(O)c(CC=C(C)C)c2O)N2CCOCC2)cc1", "note": "(stereo not drawn) [Compound 15, (E)-1-(2,4-Dihydroxy-5-((4-methoxyphenyl)(morpholino)methyl)-3-(3-methylbut-2-en-1-yl)phenyl)-3-(4-hydroxyphenyl)prop-2-en-1-one]", "values": [{"measurement": "IC50", "setting": "H1975; [2]", "result": 11.7, "unit": "µM"}, {"measurement": "IC50", "setting": "PC9", "result": 23.2, "unit": "µM"}, {"measurement": "IC50", "setting": "A549", "result": 28.9, "unit": "µM"}]}
{"compound": "CC(C)=CCc1c(O)c(C(=O)/C=C/c2ccc(O)cc2)cc(C(c2ccncc2)N2CCOCC2)c1O", "note": "(stereo not drawn) [Compound 8, (E)-1-(2,4-Dihydroxy-3-(3-methylbut-2-en-1-yl)-5-(morpholino(pyridin-4-yl)methyl)phenyl)-3-(4-hydroxyphenyl)prop-2-en-1-one]", "values": [{"measurement": "IC50", "setting": "H1975; [2]", "result": 13.8, "unit": "µM"}, {"measurement": "IC50", "setting": "PC9", "result": 29.9, "unit": "µM"}, {"measurement": "IC50", "setting": "A549", "result": 39.2, "unit": "µM"}]}
{"compound": "CC(C)=CCc1c(O)c(C(=O)/C=C/c2ccc(O)cc2)cc(C(c2ccccc2)N2CCOCC2)c1O", "note": "(stereo not drawn) [Compound 9, (E)-1-(2,4-Dihydroxy-3-(3-methylbut-2-en-1-yl)-5-(morpholino(phenyl)methyl)phenyl)-3-(4-hydroxyphenyl)prop-2-en-1-one]", "values": [{"measurement": "IC50", "setting": "H1975; [2]", "result": 12.1, "unit": "µM"}, {"measurement": "IC50", "setting": "PC9", "result": 22.8, "unit": "µM"}, {"measurement": "IC50", "setting": "A549", "result": 26.9, "unit": "µM"}]}
{"compound": "CC(C)=CCc1c(O)c(C(=O)/C=C/c2ccc(O)cc2)cc(C(c2ccc(Br)cc2)N2CCOCC2)c1O", "note": "(stereo not drawn) [Compound 10, (E)-1-(5-((4-Bromophenyl)(morpholino)methyl)-2,4-dihydroxy-3-(3-methylbut-2-en-1-yl)phenyl)-3-(4-hydroxyphenyl)prop-2-en-1-one]", "values": [{"measurement": "IC50", "setting": "H1975; [2]", "result": 6.76, "unit": "µM"}, {"measurement": "IC50", "setting": "PC9", "result": 18.6, "unit": "µM"}, {"measurement": "IC50", "setting": "A549", "result": 34.8, "unit": "µM"}]}
{"compound": "CC(C)=CCc1c(O)ccc(C(=O)/C=C/c2ccc(OCc3ccccc3)cc2)c1O", "note": "[Compound 5, (E)-3-(4-(Benzyloxy)phenyl)-1-(2,4-dihydroxy-3-(3-methylbut-2-en-1-yl)phenyl)prop-2-en-1-one]", "values": [{"measurement": "IC50", "setting": "H1975; [2]", "result": 13.6, "unit": "µM"}, {"measurement": "IC50", "setting": "PC9", "result": 24.9, "unit": "µM"}, {"measurement": "IC50", "setting": "A549", "result": 33.1, "unit": "µM"}]}
{"compound": "CC(C)=CCc1c(O)ccc(C(=O)/C=C/c2ccc(O)cc2)c1O", "note": "[IBC, isobavachalcone]", "values": [{"measurement": "IC50", "setting": "H1975; [2]", "result": 17.9, "unit": "µM"}, {"measurement": "IC50 at 72 h", "setting": "[1]", "result": "17.7 ± 1.2", "unit": "µM"}, {"measurement": "IC50", "setting": "PC9", "result": 9.22, "unit": "µM"}, {"measurement": "IC50", "setting": "A549", "result": 21.7, "unit": "µM"}]}
{"compound": "COc1ccc(/C=C/C(=O)c2ccc(O)c(CC=C(C)C)c2O)cc1", "note": "[Compound 1, (E)-1-(2,4-Dihydroxy-3-(3-methylbut-2-en-1-yl)phenyl)-3-(4-methoxyphenyl)prop-2-en-1-one]", "values": [{"measurement": "IC50", "setting": "H1975; [2]", "result": 38, "unit": "µM"}, {"measurement": "IC50", "setting": "PC9", "result": 14.3, "unit": "µM"}, {"measurement": "IC50", "setting": "A549", "result": 41.6, "unit": "µM"}]}
{"compound": "CC(C)=CCc1c(O)c(C(=O)/C=C/c2ccc(O)cc2)cc(C(c2ccc(Cl)cc2)N2CCOCC2)c1O", "note": "(stereo not drawn) [Compound 11, (E)-1-(5-((4-Chlorophenyl)(morpholino)methyl)-2,4-dihydroxy-3-(3-methylbut-2-en-1-yl)phenyl)-3-(4-hydroxyphenyl)prop-2-en-1-one]", "values": [{"measurement": "IC50", "setting": "H1975; [2]", "result": 11.4, "unit": "µM"}, {"measurement": "IC50", "setting": "PC9", "result": 19.7, "unit": "µM"}, {"measurement": "IC50", "setting": "A549", "result": 21.8, "unit": "µM"}]}
{"compound": "CC(C)=CCc1c(O)c(C(=O)/C=C/c2ccc(O)cc2)cc(C(c2ccc(F)cc2)N2CCOCC2)c1O", "note": "(stereo not drawn) [Compound 12, (E)-1-(5-((4-Fluorophenyl)(morpholino)methyl)-2,4-dihydroxy-3-(3-methylbut-2-en-1-yl)phenyl)-3-(4-hydroxyphenyl)prop-2-en-1-one]", "values": [{"measurement": "IC50", "setting": "H1975; [2]", "result": 12.1, "unit": "µM"}, {"measurement": "IC50", "setting": "PC9", "result": 20.7, "unit": "µM"}, {"measurement": "IC50", "setting": "A549", "result": 33, "unit": "µM"}]}
{"compound": "CC(C)=CCc1c(O)c(/C=N/NC(=N)N)cc(C(=O)/C=C/c2ccc(O)cc2)c1O", "note": "[Compound 7, 2-((E)-2,4-Dihydroxy-5-((E)-3-(4-hydroxyphenyl)acryloyl)-3-(3-methylbut-2-en-1-yl)benzylidene)hydrazine-1-carboximidamide]", "values": [{"measurement": "IC50", "setting": "H1975; [2]", "result": 7.33, "unit": "µM"}, {"measurement": "IC50", "setting": "H1975; read-out: IC50 values against H1975 and A549 cell lines (range over both)", "result": "4.35 to 15", "unit": "µM"}, {"measurement": "IC50", "setting": "PC9", "result": 8.3, "unit": "µM"}, {"measurement": "IC50", "setting": "A549", "result": 15, "unit": "µM"}]}
{"compound": "CC(C)=CCc1c(O)c(C=O)cc(C(=O)/C=C/c2ccc(O)cc2)c1O", "note": "[Compound 6, (E)-2,4-Dihydroxy-5-(3-(4-hydroxyphenyl)acryloyl)-3-(3-methylbut-2-en-1-yl)benzylaldehyde]", "values": [{"measurement": "IC50", "setting": "H1975; [2]", "result": 5.79, "unit": "µM"}, {"measurement": "IC50", "setting": "PC9", "result": 18.4, "unit": "µM"}, {"measurement": "IC50", "setting": "A549", "result": 24.1, "unit": "µM"}]}
{"compound": "CC(C)=CCc1c(O)c(C(=O)/C=C/c2ccc(O)cc2)cc(C(c2ccc([N+](=O)[O-])cc2)N2CCOCC2)c1O", "note": "(stereo not drawn) [Compound 13, (E)-1-(2,4-Dihydroxy-3-(3-methylbut-2-en-1-yl)-5-(morpholino(4-nitrophenyl)methyl)phenyl)-3-(4-hydroxyphenyl)prop-2-en-1-one]", "values": [{"measurement": "IC50", "setting": "H1975; [2]", "result": 7.39, "unit": "µM"}, {"measurement": "IC50", "setting": "PC9", "result": 23.5, "unit": "µM"}, {"measurement": "IC50", "setting": "A549", "result": 44.5, "unit": "µM"}]}
{"compound": "CC(C)=CCc1c(OCc2ccccc2)ccc(C(=O)/C=C/c2ccc(OCc3ccccc3)cc2)c1O", "note": "[Compound 4, (E)-1-(4-(Benzyloxy)-2-hydroxy-3-(3-methylbut-2-en-1-yl)phenyl)-3-(4-(benzyl-oxy)phenyl)prop-2-en-1-one]", "values": [{"measurement": "IC50", "setting": "H1975; [2]", "result": "> 50", "unit": "µM"}, {"measurement": "IC50", "setting": "PC9", "result": "> 50", "unit": "µM"}, {"measurement": "IC50", "setting": "A549", "result": "> 50", "unit": "µM"}]}
{"compound": "CC(=O)O[C@H]1C(=O)[C@@]2(C)[C@H]([C@H](OC(=O)c3ccccc3)[C@]3(O)C[C@H](OC(=O)[C@H](O)[C@@H](NC(=O)c4ccccc4)c4ccccc4)C(C)=C1C3(C)C)[C@]1(OC(C)=O)CO[C@@H]1C[C@@H]2O", "note": "[Paclitaxel, reference compound]", "values": [{"measurement": "IC50", "setting": "H1975; [2]", "result": 0.01, "unit": "µM"}, {"measurement": "IC50 at 72 h", "setting": "[1]", "result": "2.51 ± 0.13", "unit": "µM"}, {"measurement": "IC50", "setting": "PC9", "result": 0.06, "unit": "µM"}, {"measurement": "IC50", "setting": "A549", "result": 1.61, "unit": "µM"}]}
